Values joined by “and” are separate entries in the source; they are usually repeats but may differ in a detail not shown here. Identical values can stand only once.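 1) Cells in 96-well plates. 2) Compound, 48 h, 5 concentrations. 3) Linear interpolation between surrounding doses. 4) Unreached endpoint = highest concentration. Here, GI50 denotes the concentration required for 50% inhibition of growth. The concentration for full growth arrest is given as TGI.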
Key:
Test in all cases: DTP human tumour cell line panel, 48 h
COLO 205 colon = system: COLO 205 colon
NCI-H226 lung = system: NCI-H226 lung
A498 renal = system: A498 renal
SW-620 colon = system: SW-620 colon
EKVX NSCLC = system: EKVX NSCLC
MDA-MB-231 breast = system: MDA-MB-231 breast
SNB-75 CNS = system: SNB-75 CNS
SN12C renal = system: SN12C renal
OVCAR-3 ovarian = system: OVCAR-3 ovarian
DU-145 prostate = system: DU-145 prostate

SMILES | GI50 (COLO 205 colon) [µM] | TGI (COLO 205 colon) | GI50 (NCI-H226 lung) [µM] | TGI (NCI-H226 lung) | GI50 (A498 renal) [µM] | TGI (A498 renal) | GI50 (SW-620 colon) [µM] | TGI (SW-620 colon) | GI50 (EKVX NSCLC) [µM] | TGI (EKVX NSCLC) | GI50 (MDA-MB-231 breast) [µM] | TGI (MDA-MB-231 breast) | GI50 (SNB-75 CNS) [µM] | TGI (SNB-75 CNS) | GI50 (SN12C renal) [µM] | TGI (SN12C renal) | GI50 (OVCAR-3 ovarian) [µM] | TGI (OVCAR-3 ovarian) | GI50 (DU-145 prostate) [µM] | TGI (DU-145 prostate)
C=C1C(=O)O[C@H]2[C@H]1CC/C(COC(=O)NCc1cccc(OC)c1)=C\CC[C@@]1(C)O[C@@H]21 | 1.68 | 3.41 µM | 12.1 | 27.8 µM | 10.5 | 22.4 µM | 1.52 | 3.28 µM | 2 | 5.81 µM | 1.95 | 4.22 µM | 12.2 | 24.7 µM | 1.77 | 4.4 µM | 1.6 | 3.29 µM | 1.58 | 3.04 µM
NCCCn1c2c(c3ccc([N+](=O)[O-])cc3c1=O)C(=O)c1cc(Cl)ccc1-2 | < 0.01 | 0.313 µM | < 0.01 | 0.141 µM | 0.0274 | 0.596 µM | < 0.01 | 0.213 µM | 0.0241 | 0.189 µM | 0.218 | 0.64 µM | < 0.01 | 1.2 µM | < 0.01 | 0.146 µM |  |  | < 0.01 | 0.115 µM
OCCCCC#Cc1ccccc1C#Cc1cccs1 | 16.4 | 31.5 µM | 18.9 | 43.6 µM | 9.67 | 23.3 µM | 15.9 | 30.6 µM | 10.8 | 23.9 µM | 10.6 | 23.3 µM | 11.8 | 24.8 µM | 16.3 | 31.7 µM | 15 | 28.9 µM | 13 | 25.7 µM
CN1CCN(c2ccc([N+](=O)[O-])c3no[n+]([O-])c23)CC1 | 0.942 | 2.33 µM and 2.41 µM | 0.697 | 3.39 µM and 2.16 µM | 0.288 | 2.76 µM and 1.71 µM | 0.117 | 0.828 µM and 0.261 µM |  | 2.83 µM and 2.92 µM |  | 3.46 µM and 3.65 µM | 0.175 |  | 0.357 | 1.29 µM and 1.37 µM | 0.241 | 1.29 µM and 0.753 µM | 0.302 | 1.99 µM and 1.28 µM
CCOC(=O)c1cn2ncnc(Oc3ccc(NC(=O)NCCN(CC)CC)c(Cl)c3)c2c1C | 2.01 | 3.78 µM | 17.9 | > 100 µM | 2.15 | 8.08 µM | 2.1 | 4.6 µM | 3.79 | 21.5 µM | 2.1 | 4.37 µM | 3.14 | 31.5 µM | 3.34 | 13.3 µM | 8.12 | 35.8 µM | 7.1 | 55.1 µM
C=C(C)C(=O)N1c2ccc(OC)cc2CC1C(=O)OCC (stereo not given) |  | > 100 µM |  | > 100 µM |  | > 100 µM |  | > 100 µM |  | > 100 µM |  | > 100 µM |  | > 100 µM |  | > 100 µM |  | > 100 µM |  | > 100 µM
C=C(C)C1CCC2(CO)C(O)CC3(C)C(CCC4C5(C)CCC(O)C(C)(C)C5CCC43C)C12 (stereo not given) |  |  |  | > 100 µM |  | 31.9 µM |  | > 100 µM |  | 32.6 µM |  | 57.2 µM |  | 9.5 µM |  | > 100 µM |  | 29.2 µM |  | > 100 µM
C[C@@H]1CCC2[C@@H](C)[C@H](OC(=O)CCC(=O)NCCNC(=O)Cc3cc(=O)oc4cc(N(C)C)ccc34)O[C@@H]3O[C@]4(C)CC[C@@H]1C23OO4 (stereo not given in full) | 2.62 | 15.2 µM | 7.81 | 35.2 µM | 7.5 | > 89.9 µM | 0.457 | 20.8 µM | 0.645 | 9.47 µM | 22.6 | > 100 µM | 8.22 | 29.2 µM | 4.04 | > 100 µM | 0.629 | 18.1 µM | 10.3 | 24 µM
c1ccc([P+](CCC[P+](c2ccccc2)(c2ccccc2)c2ccccc2)(c2ccccc2)c2ccccc2)cc1 | 2.89 | 96.6 µM and 10.5 µM | 32.7 | 93.8 µM and > 100 µM | 14.6 | > 100 µM | 15 | > 100 µM |  | > 100 µM | 23 | > 100 µM | 4.56 | 86 µM and 67.6 µM | 19.6 | > 100 µM | 4.41 | 83.7 µM and 35.5 µM | 19.9 | > 100 µM
Cc1[nH]ccc2cc3nc4ccccc4c3cc12 | 2.35 | 7.15 µM | 2.94 | 12.6 µM | 0.421 | 2.15 µM | 1.07 | 6.9 µM |  |  | 2 | 8.24 µM | 5.52 | 18.9 µM | 2.55 | 12.5 µM | 3.04 | 10.7 µM | 2.18 | 5.83 µM
C#CCOc1cccc(Nc2ncnc3c2ncn3C2CCN(C(=O)CCl)C2)c1 (stereo not given) |  |  | 29.5 | > 100 µM | > 100 | > 100 µM | 18.4 | 39.1 µM | 26.1 | 74.2 µM | 18.6 | 35.9 µM | 34.1 | > 100 µM | 15.4 | 35.5 µM | 17.2 | 31.4 µM | 19.8 | 37.5 µM
CSc1ccc(C(=O)/C=C/c2ccc(F)cc2)cc1 | > 100 | > 100 µM | 57.4 | > 100 µM | 26.7 | 95.5 µM | 24.8 | 70.8 µM | > 100 | > 100 µM | 74.6 | > 100 µM | 7.05 | > 100 µM | > 100 | > 100 µM |  |  | 54.8 | > 100 µM
COc1ccc(-c2cc3nccn3c(Nc3ncccc3C(N)=O)n2)cc1OC | 1.21 | > 100 µM | > 100 | > 100 µM | 0.456 | > 100 µM | 2.34 | > 100 µM |  |  | > 100 | > 100 µM | 1.04 | > 100 µM | 1.05 | > 100 µM | > 47 | > 100 µM | 2 | > 100 µM
